Experimental data taken from the NIST ThermoML archive (doi:10.1021/je060271a).
Numbers after ± are expanded uncertainties.

Conditions: 343.15 K, Liquid, Vibrating tube method

CCCCC(=O)OCC(COC(=O)CCCC)(COC(=O)CCCC)COC(=O)CCCC [pentaerythritol tetrapentanoate]
Conditions | mass density [kg/m3]
27496 kPa | 998.3 ± 1.2
27541 kPa | 998.4 ± 1.2
27578 kPa | 998.4 ± 1.2
27617 kPa | 998.5 ± 1.2
27662 kPa | 998.4 ± 1.2
27700 kPa | 998.5 ± 1.2
27738 kPa | 998.5 ± 1.2
27785 kPa | 998.6 ± 1.2
27824 kPa | 998.6 ± 1.2
27862 kPa | 998.5 ± 1.2
27909 kPa | 998.6 ± 1.2
27948 kPa | 998.7 ± 1.2
27987 kPa | 998.7 ± 1.2
28026 kPa | 998.7 ± 1.2
28074 kPa | 998.7 ± 1.2
28113 kPa | 998.8 ± 1.2
28153 kPa | 998.7 ± 1.2
28200 kPa | 998.8 ± 1.2
28240 kPa | 998.9 ± 1.2
28289 kPa | 998.9 ± 1.2
28330 kPa | 998.9 ± 1.2
28371 kPa | 998.8 ± 1.2
28412 kPa | 998.9 ± 1.2
28453 kPa | 999 ± 1.2
28503 kPa | 998.9 ± 1.2
28545 kPa | 999 ± 1.2
28596 kPa | 999.1 ± 1.2
28641 kPa | 999 ± 1.2
28684 kPa | 999 ± 1.2
28725 kPa | 999.2 ± 1.2
28755 kPa | 999.2 ± 1.2
28785 kPa | 999.3 ± 1.2
28821 kPa | 999.1 ± 1.2
28853 kPa | 999.3 ± 1.2
28882 kPa | 999.3 ± 1.2
28912 kPa | 999.2 ± 1.2
28948 kPa | 999.2 ± 1.2
28978 kPa | 999.3 ± 1.2
29009 kPa | 999.3 ± 1.2
29045 kPa | 999.5 ± 1.2
29076 kPa | 999.4 ± 1.2
29107 kPa | 999.3 ± 1.2
29143 kPa | 999.5 ± 1.2
29174 kPa | 999.4 ± 1.2
29204 kPa | 999.5 ± 1.2
29242 kPa | 999.5 ± 1.2
29275 kPa | 999.5 ± 1.2
29306 kPa | 999.5 ± 1.2
29338 kPa | 999.6 ± 1.2
29375 kPa | 999.6 ± 1.2
29406 kPa | 999.6 ± 1.2
29437 kPa | 999.6 ± 1.2
29474 kPa | 999.6 ± 1.2
29506 kPa | 999.7 ± 1.2
29538 kPa | 999.7 ± 1.2
29576 kPa | 999.7 ± 1.2
29607 kPa | 999.7 ± 1.2
29639 kPa | 999.8 ± 1.2
29671 kPa | 999.8 ± 1.2
29710 kPa | 999.8 ± 1.2
29741 kPa | 999.9 ± 1.2
29780 kPa | 999.8 ± 1.2
29812 kPa | 999.9 ± 1.2
29845 kPa | 999.9 ± 1.2
29878 kPa | 999.9 ± 1.2
29917 kPa | 1000 ± 1.2
29950 kPa | 999.9 ± 1.2
29983 kPa | 1000.1 ± 1.2
30022 kPa | 999.9 ± 1.2
30056 kPa | 1000 ± 1.2
30088 kPa | 999.9 ± 1.2
30128 kPa | 1000.2 ± 1.2
30194 kPa | 1000.1 ± 1.2
30227 kPa | 1000.2 ± 1.2
30266 kPa | 1000.1 ± 1.2
30299 kPa | 1000.3 ± 1.2
30333 kPa | 1000.3 ± 1.2
30374 kPa | 1000.1 ± 1.2
30407 kPa | 1000.2 ± 1.2
30441 kPa | 1000.2 ± 1.2
30480 kPa | 1000.3 ± 1.2
30514 kPa | 1000.3 ± 1.2
30549 kPa | 1000.3 ± 1.2
30590 kPa | 1000.5 ± 1.2
30624 kPa | 1000.3 ± 1.2
30658 kPa | 1000.4 ± 1.2
30698 kPa | 1000.5 ± 1.2
30733 kPa | 1000.5 ± 1.2
30767 kPa | 1000.5 ± 1.2
30808 kPa | 1000.6 ± 1.2
30843 kPa | 1000.4 ± 1.2
30878 kPa | 1000.6 ± 1.2
30919 kPa | 1000.5 ± 1.2
30954 kPa | 1000.5 ± 1.2
30990 kPa | 1000.7 ± 1.2
31031 kPa | 1000.7 ± 1.2
31067 kPa | 1000.8 ± 1.2
31103 kPa | 1000.6 ± 1.2
31138 kPa | 1000.7 ± 1.2
31181 kPa | 1000.7 ± 1.2
31216 kPa | 1000.7 ± 1.2
31252 kPa | 1000.8 ± 1.2
31294 kPa | 1000.8 ± 1.2
31330 kPa | 1000.9 ± 1.2
31366 kPa | 1000.9 ± 1.2
31409 kPa | 1001 ± 1.2
31444 kPa | 1000.8 ± 1.2
31481 kPa | 1000.8 ± 1.2
31524 kPa | 1000.8 ± 1.2
31560 kPa | 1000.9 ± 1.2
31597 kPa | 1000.9 ± 1.2
31634 kPa | 1001 ± 1.2
31678 kPa | 1001 ± 1.2
31714 kPa | 1001 ± 1.2
31758 kPa | 1001.1 ± 1.2
31795 kPa | 1001 ± 1.2
31832 kPa | 1001 ± 1.2
31876 kPa | 1001.1 ± 1.2
31913 kPa | 1001.1 ± 1.2
31950 kPa | 1001.3 ± 1.2
31995 kPa | 1001.3 ± 1.2
32033 kPa | 1001.4 ± 1.2
32074 kPa | 1001.2 ± 1.2
32111 kPa | 1001.4 ± 1.2
32156 kPa | 1001.3 ± 1.2
32194 kPa | 1001.5 ± 1.2
32232 kPa | 1001.2 ± 1.2
32278 kPa | 1001.4 ± 1.2
32438 kPa | 1001.5 ± 1.2
32476 kPa | 1001.5 ± 1.2
32563 kPa | 1001.6 ± 1.2
32604 kPa | 1001.6 ± 1.2
32643 kPa | 1001.6 ± 1.2
32691 kPa | 1001.8 ± 1.2
32730 kPa | 1001.6 ± 1.2
32769 kPa | 1001.8 ± 1.2
32816 kPa | 1001.8 ± 1.2
32856 kPa | 1001.8 ± 1.2
32896 kPa | 1001.8 ± 1.2
32943 kPa | 1001.8 ± 1.2
32983 kPa | 1001.9 ± 1.2
33024 kPa | 1001.9 ± 1.2
33064 kPa | 1001.9 ± 1.2
33114 kPa | 1002 ± 1.2
33154 kPa | 1001.9 ± 1.2
33196 kPa | 1001.9 ± 1.2
33244 kPa | 1002.1 ± 1.2
33285 kPa | 1002.1 ± 1.2
33326 kPa | 1002.2 ± 1.2
33374 kPa | 1002 ± 1.2
33416 kPa | 1002.1 ± 1.2
33457 kPa | 1002.2 ± 1.2
33507 kPa | 1002.2 ± 1.2
33548 kPa | 1002.2 ± 1.2
33591 kPa | 1002.3 ± 1.2
33641 kPa | 1002.3 ± 1.2
33684 kPa | 1002.3 ± 1.2
33726 kPa | 1002.5 ± 1.2
33778 kPa | 1002.4 ± 1.2
33822 kPa | 1002.4 ± 1.2
